In US10214681B2, “Method for treating a subterranean formation” (Schlumberger Technology Corporation, priority 2015, dated 2019):

Tests used:
Format in all cases: biochemical
[1] = system: cellulase; experiment: Viscosity of guar fluid with cellulase and deactivator at 22° C. (Examples 3-7); details: 200 ppm cellulase; for degradation of the guar: 22° C. (FIG. 4)
Description: (§1) The following example formulations were prepared by adding a desired amount of cellulase and then a deactivator to water. The polymer was hydrated in the mixed water with a Waring blender mixing at 1000-3000 rpm for 15 mins.
The viscosities of Formulations 1-6 were measured immediately after mixing. To measure the viscosity of the solutions, 12 mL samples were loaded into a rheometer cup in a Bohlin rheometer with a C25 configuration.
The viscosities of Formulations 1-4 were measured immediately after mixing. To measure the viscosity of the solutions, 12 mL samples were loaded into a rheometer cup in a Bohlin rheometer with a C25 configuration.
The viscosities of Formulations 1-5 were measured immediately after mixing. To measure the viscosity of the solutions, 12 mL samples were loaded into a rheometer cup in a Bohlin rheometer with a C25 configuration.

[2] = system: cellulase; experiment: Viscosity of xanthan fluid with cellulase and deactivator at 22° C. (Example 8); details: 0.6 g/L deactivator, 200 ppm cellulase, 3.6 g/L xanthan
Description: as §1
Formulation 3 was prepared by adding 200 ppm cellulase, 0.6 g/L of 1,5-dihydroxynaphthalene, and 3.6 g/L xanthan to tap water.
(§2) The viscosities of Formulations 1-3 were measured immediately after mixing. To measure the viscosity of the solutions, 12 mL samples were loaded into a rheometer cup in a Bohlin rheometer with a C25 configuration.

[3] = system: cellulase; experiment: Viscosity of guar solution with cellulase and deactivator over time at 50° C. and 80° C. (Example 1); details: 200 ppm cellulase, 3.6 g/L guar
Description: as §1
Formulation 3 was prepared by adding 200 ppm cellulase and 0.6 g/L of 1,5-dihydroxynaphthalene from Sigma Aldrich to tap water. Then 3.6 g/L guar was added to the fluid.
Formulation 4 was prepared by adding 200 ppm cellulase and 0.24 g/L of 1,5-dihydroxynaphthalene from Sigma Aldrich to tap water. Then 3.6 g/L guar was added to the fluid.
To measure the viscosity of the solutions, 12 mL samples were loaded into a rheometer cup in a Bohlin rheometer with a C25 configuration. The rheology tests were performed at a shear rate of 10 s^−1 and temperatures of 50° C. and 80° C., the results of which are shown in FIG. 1 and FIG. 2, respectively.

[4] = system: cellulase; experiment: Viscosity of carboxymethyl cellulose fluid with cellulase and deactivator at 22° C. (Example 9); details: 0.6 g/L deactivator, 200 ppm cellulase, 3.6 g/L carboxymethyl cellulose
Description: as §1
Formulation 3 was prepared by adding 200 ppm cellulase, 0.6 g/L of 1,5-dihydroxynaphthalene, and 3.6 g/L carboxymethyl cellulose to tap water.
as §2

[5] = system: bacterial and/or fungal cells; experiment: Viscosity of guar in water containing 11,000,000 CFU bacterial and/or fungal cells (Example 2); details: 0.4 g/L deactivator, 3.6 g/L guar
Description: Formulation 2 was prepared by adding 3.6 g/L guar to water containing 11,000,000 CFU bacterial and/or fungal cells.
Formulation 3 was prepared by adding 0.4 g/L of tannic acid to Formulation 2.
as §2

With `COc1cccc(OC)c1OC` [1,2,3-trimethoxybenzene] the “degradation of the biomaterial” value ([1]; 0.6 g/L 1,2,3-trimethoxybenzene, 3.6 g/L guar, 22° C. (FIG. 8)) was “impeded” and the “viscosity compared with Formulation 1 (no cellulase)” value ([1]; 0.6 g/L 1,2,3-trimethoxybenzene, 3.6 g/L guar, shear rate 1, 10, 100 s^-1, 22° C. (FIG. 8)) was “similar”.

For `COc1cc(OC)cc(OC)c1` [1,3,5-trimethoxybenzene], the “degradation of the biomaterial” value ([1]; 0.6 g/L 1,3,5-trimethoxybenzene, 3.6 g/L guar, 22° C. (FIG. 8)) was “impeded” and the “viscosity compared with Formulation 1 (no cellulase)” value ([1]; 0.6 g/L 1,3,5-trimethoxybenzene, 3.6 g/L guar, shear rate 1, 10, 100 s^-1, 22° C. (FIG. 8)) was “similar”.

With `Oc1cccc2c(O)cccc12` [1,5-dihydroxynaphthalene] the “degradation of the biomaterial” value ([2]; 22° C. (FIG. 9)) was “impeded”, the “viscosity compared with Formulation 1 (no cellulase)” value ([2]; shear rate 1, 10, 100 s^-1, 22° C. (FIG. 9)) was “similar” and the “degradation rate of the cellulase enzymes” value ([3]; 0.6 g/L deactivator, tap water, shear rate 10 s^-1, 50° C. and 80° C. (FIG. 1, 2)) was “reduced”. The “dependence of viscosity reduction on deactivator concentration” value ([3]; 0.6 g/L vs 0.24 g/L deactivator, 50° C. (FIG. 1)) was “the slower the viscosity was reduced”, the “viscosity compared with the formulation without deactivator” value ([3]; 50° C., shear rate 10 s^-1 (FIG. 1)) was “higher” and the “viscosity compared with the formulation without deactivator” value ([3]; 80° C., shear rate 10 s^-1 (FIG. 2)) was “higher”. The “degradation of the biomaterial” value ([4]; 22° C. (FIG. 10)) was “impeded”, the “viscosity compared with Formulation 1 (no cellulase)” value ([4]; shear rate 1, 10, 100 s^-1, 22° C. (FIG. 10)) was “similar” and the “degradation of the biomaterial” value ([1]; 0.6 g/L deactivator, 3.6 g/L guar, 22° C. (FIG. 6)) was “impeded”. The “viscosity compared with Formulation 1 (no cellulase)” value ([1]; 0.6 g/L deactivator, 3.6 g/L guar, shear rate 1, 10, 100 s^-1, 22° C. (FIG. 6)) was “similar”.

`Oc1cccc2cccc(O)c12` [1,8-dihydroxynaphthalene] was tested, and the “degradation of the biomaterial” value ([1]; 0.12 g/L deactivator, 3.6 g/L guar, 22° C. (FIG. 6)) was “impeded” and the “viscosity compared with Formulation 1 (no cellulase)” value ([1]; 0.12 g/L deactivator, 3.6 g/L guar, shear rate 1, 10, 100 s^-1, 22° C. (FIG. 6)) was “similar”.

`Oc1cc2ccccc2cc1O` [2,3-dihydroxynaphthalene] was tested, and the “degradation of the biomaterial” value ([1]; 0.36 g/L deactivator, 3.6 g/L guar, 22° C. (FIG. 6)) was “impeded” and the “viscosity compared with Formulation 1 (no cellulase)” value ([1]; 0.36 g/L deactivator, 3.6 g/L guar, shear rate 1, 10, 100 s^-1, 22° C. (FIG. 6)) was “similar”.

In the case of `Nc1cccc2c(O)cccc12` [5-amino-1-naphthol], the “degradation of the biomaterial” value ([1]; 0.96 g/L deactivator, 3.6 g/L guar, 22° C. (FIG. 7)) is reported as “impeded” and the “viscosity compared with Formulation 1 (no cellulase)” value ([1]; 0.96 g/L deactivator, 3.6 g/L guar, shear rate 1, 10, 100 s^-1, 22° C. (FIG. 7)) is reported as “similar”.

In the case of `O=C(O)c1cc(O)c(O)c(O)c1` [gallic acid], the “degradation of the guar” value ([1]; 8 mL/L gallic acid, 3.6 g/L guar) is reported as “impeded” and the “viscosity compared with Formulation 1 (no cellulase)” value ([1]; 8 mL/L gallic acid, 3.6 g/L guar, shear rate 1, 10, 100 s^-1, 22° C. (FIG. 4)) is reported as “similar”.

With `COc1ccccc1O` [guaiacol] the “degradation of the guar” value ([1]; 8 mL/L deactivator, 6 g/L guar) was “impeded” and the “viscosity compared with Formulation 1 (no cellulase)” value ([1]; 8 mL/L deactivator, 6 g/L guar, shear rate 1, 10, 100 s^-1, 22° C. (FIG. 4)) was “similar”.

In the case of `O=C(O)c1ccccc1O` [salicylic acid], the “degradation of the guar” value ([1]; 8 mL/L salicylic acid, 3.6 g/L guar) is reported as “impeded” and the “viscosity compared with Formulation 1 (no cellulase)” value ([1]; 8 mL/L salicylic acid, 3.6 g/L guar, shear rate 1, 10, 100 s^-1, 22° C. (FIG. 4)) is reported as “similar”.

`Oc1ccc2c(c1)OCO2` [sesamol] was tested, and the “degradation of the biomaterial” value ([1]; 0.36 g/L deactivator, 3.6 g/L guar, 22° C. (FIG. 7)) was “impeded” and the “viscosity compared with Formulation 1 (no cellulase)” value ([1]; 0.36 g/L deactivator, 3.6 g/L guar, shear rate 1, 10, 100 s^-1, 22° C. (FIG. 7)) was “similar”.

For `O=C(OC[C@H]1O[C@@H](OC(=O)c2cc(O)c(O)c(OC(=O)c3cc(O)c(O)c(O)c3)c2)[C@H](OC(=O)c2cc(O)c(O)c(OC(=O)c3cc(O)c(O)c(O)c3)c2)[C@@H](OC(=O)c2cc(O)c(O)c(OC(=O)c3cc(O)c(O)c(O)c3)c2)[C@@H]1OC(=O)c1cc(O)c(O)c(OC(=O)c2cc(O)c(O)c(O)c2)c1)c1cc(O)c(O)c(OC(=O)c2cc(O)c(O)c(O)c2)c1` [tannic acid], the “degradation of the guar biomaterial by the enzyme” value ([5]; water with 11,000,000 CFU bacterial and/or fungal cells, 22° C. (FIG. 3)) was “inhibited”, the “viscosity compared with Formulation 1 (guar in tap water)” value ([5]; water with 11,000,000 CFU cells, shear rate 1, 10, 100 s^-1, 22° C. (FIG. 3)) was “similar” and the “degradation of the biomaterial by the cellulase enzymes” value ([1]; 0.4 g/L deactivator, 3.6 g/L guar, 22° C. (FIG. 5)) was “impeded”. For the same compound, the “viscosity compared with Formulation 1 (no cellulase)” value ([1]; 0.4 g/L deactivator, 3.6 g/L guar, shear rate 1, 10, 100 s^-1, 22° C. (FIG. 5)) was “similar”.

`COc1cc(C(=O)O)ccc1O` [vanillic acid] was tested, and the “degradation of the guar” value ([1]; 0.96 g/L deactivator, 3.6 g/L guar) was “impeded” and the “viscosity compared with Formulation 1 (no cellulase)” value ([1]; 0.96 g/L deactivator, 3.6 g/L guar, shear rate 1, 10, 100 s^-1, 22° C. (FIG. 4)) was “similar”.
